# From patent US20120058935A1, “ANTIMICROBIAL COMPOSITIONS AND METHODS OF USE THEREFORE” (priority 2009, published 2012)
# Like-named read-outs stand apart in the source and are kept apart here. Ends that are not written are not given here.
# Tests used:
# 12 microorganisms = experiment: Antimicrobial activity against the panel of 12 microorganisms (summary); assay type: cell-based; conditions: summary in words of the MIC experiments
# Method: Peptide antimicrobial activity was determined as minimal inhibitory concentration (MIC). Experiments identified peptide MIC by broth microdilution susceptibility test in conjunction with CFU and alamar blue assays. Inoculum containing mid-logarithmic phase cells was dispensed into the wells of polypropylene 96-well plates (Fisher, Pittsburgh, Pa.) containing seven two-fold dilutions of test peptide in growth media. Plates were then incubated aerobically overnight (12 to 18 hrs) at 37° C. Peptide MIC was taken as the lowest concentration able reduce cell growth by CFU and alamar blue assays by at least two-fold and which correlated with the visible loss of a growth button on the bottom of microtiter wells. Experiments were repeated a minimum of three times for each organism, and tests included at least three replicates for each assay condition. Experiments included control serial dilutions of buffer vehicle alone.
# [1] = clinical trial, AD patients, ref. [34]; cited from earlier work
# [2] = system: Staphylococcus epidermidis; assay type: cell-based
# Method: (§1) Bacteria were cultured aerobically in Mueller-Hinton broth (MHB), Brain and Heart Infusion broth (BHIB), or BHIB supplemented with 1% lysed horse blood and plated on Tryptone Soy Agar (TSA) plates containing 5% defibrinated sheep blood. […] Organisms were subcultured for 2 hrs to generate mid-logarithmic growth cultures for use as inoculates in experiments.
# (§2) Bacteria inoculum cell densities were normalized to 5×10^5 cells/ml immediately before use photometrically and subsequently confirmed by colony count. Inoculum of C. albicans contained a cell density of 2.5×10^3 CFU/ml.
# (§3) Bulk powdered peptides were first dissolved in 30% trifluoroethanol (TFE) at 1 mg/ml. […] Stock solutions at 2 mg/ml were prepared the day of experimentation from the peptide films by solubilizing a second time in either water or 20% TFE. Aβ stocks prepared in water were sonicated and insoluble peptide aggregates pelleted by centrifugation (10 min×16,000 g). Peptide concentrations in stock solutions were determined immediately before use by bicinchoninic acid (BCA) protein assay. […] For MIC experiments, peptides were serially diluted into growth media. For other experiments stocks were diluted into required working buffers. Experiments included controls for peptide buffer vehicle alone.
# (§4) Experiments identified peptide MIC by broth microdilution susceptibility test in conjunction with CFU and alamar blue assays. […] Peptide MIC was taken as the lowest concentration able reduce cell growth by CFU and alamar blue assays by at least two-fold and which correlated with the visible loss of a growth button on the bottom of microtiter wells. Experiments were repeated a minimum of three times for each organism, and tests included at least three replicates for each assay condition. Experiments included control serial dilutions of buffer vehicle alone.
# Streptococcus pyogenes = assay type: cell-based
# Method: as §1, §2, §3, §4
# Enterococcus faecalis = assay type: cell-based
# Method: as §1, §2, §3, §4
# Pseudomonas aeruginosa = assay type: cell-based
# Method: as §1, §2, §3, §4
# Candida albicans = assay type: cell-based
# Method: as §1, §2, §3, §4
# Listeria monocytogenes = assay type: cell-based
# Method: as §1, §2, §3, §4
# E. faecalis = E. faecalis growth curves with peptide (CFU with time); assay type: cell-based, Enterococcus faecalis; conditions: 25 μg/ml peptide; CFU counted with time (FIG. 1)
# Method: Bacterial growth with time was monitored by inoculation of agar with diluted incubants and counting CFU. Representative data from six experiments is shown as mean signal of four replicates±s.e.m.
# CFU assay; Serial dilutions of incubants were prepared and streaked onto the surface of agar. The agar plates were then incubated overnight at 37° C. and colonies forming units counted.
# Staphylococcus aureus = assay type: cell-based; conditions: ATCC 25923; MHB; 12 hrs incubation at 37° C.
# Method: as §1, §2, §3, §4
# Streptococcus agalactiae = assay type: cell-based; conditions: ATCC 12386; BHIB/LHB; 12 hrs incubation at 37° C.
# Method: as §1, §2, §3, §4
# Streptococcus pneumoniae = assay type: cell-based; conditions: ATCC 49619; BHIB/LHB; 12 hrs incubation at 37° C.
# Method: as §1, §2, §3, §4
# Streptococcus salivarius = assay type: cell-based; conditions: ATCC 13419; BHIB/LHB; 12 hrs incubation at 37° C.
# Method: as §1, §2, §3, §4
# Streptococcus mitis = assay type: cell-based; conditions: ATCC 6249; BHIB/LHB; 12 hrs incubation at 37° C.
# Method: as §1, §2, §3, §4
# Escherichia coli = assay type: cell-based; conditions: ATCC 25922; BHIB; 12 hrs incubation at 37° C.
# Method: as §1, §2, §3, §4
Compound,"Inhibition of microbial growth, panel of 12 microorganisms (12 microorganisms)",MIC against Staphylococcus epidermidis ([2]; 18 h),MIC against Streptococcus pyogenes (Streptococcus pyogenes; 18 h),MIC against Enterococcus faecalis (Enterococcus faecalis; 18 h),MIC against Pseudomonas aeruginosa (Pseudomonas aeruginosa; 18 h),MIC against Candida albicans (Candida albicans; 18 h),MIC against Listeria monocytogenes (Listeria monocytogenes; 18 h),other results
recAβ42: Recombinant human Aβ42 purchased from rPeptide,Equivalent findings,,,,,,,
C[C@@H](C(=O)O)c1ccc(-c2ccccc2)c(F)c1 [tarenflurbil],,,,,,,,Rates of infection in patients receiving the drug [1]: significantly increased rates of infection
AIVVGGVMLGIIAGKNSGVDEAFFVLKQHHVEYGSDHRFEAD [reAβ42],not inhibited,>50 µg/mL,>50 µg/mL,50 µg/mL,>50 µg/mL,>25 µg/mL,>50 µg/mL,
DAEFGHDSGFEVRHQKLVFFAEDVGSNKGAIIGLMVGGVVIA [roAβ42],demonstrated antimicrobial activity,3.13 µg/mL,>50 µg/mL,3.13 µg/mL,>50 µg/mL,0.78 µg/mL,6.25 µg/mL,
CC[C@H](C)[C@H](NC(=O)[C@H](CCCCN)NC(=O)[C@H](CCC(=O)O)NC(=O)[C@H](CCCCN)NC(=O)[C@H](CO)NC(=O)[C@H](CCCCN)NC(=O)[C@H](CCCNC(=N)N)NC(=O)[C@H](Cc1ccccc1)NC(=O)[C@H](Cc1ccccc1)NC(=O)[C@H](CC(=O)O)NC(=O)CNC(=O)[C@H](CC(C)C)NC(=O)[C@@H](N)CC(C)C)C(=O)NCC(=O)N[C@@H](CCCCN)C(=O)N[C@@H](CCC(=O)O)C(=O)N[C@@H](Cc1ccccc1)C(=O)N[C@@H](CCCCN)C(=O)N[C@@H](CCCNC(=N)N)C(=O)N[C@H](C(=O)N[C@H](C(=O)N[C@@H](CCC(N)=O)C(=O)N[C@@H](CCCNC(=N)N)C(=O)N[C@H](C(=O)N[C@@H](CCCCN)C(=O)N[C@@H](CC(=O)O)C(=O)N[C@@H](Cc1ccccc1)C(=O)N[C@@H](CC(C)C)C(=O)N[C@@H](CCCNC(=N)N)C(=O)N[C@@H](CC(N)=O)C(=O)N[C@@H](CC(C)C)C(=O)N[C@H](C(=O)N1CCC[C@H]1C(=O)N[C@@H](CCCNC(=N)N)C(=O)N[C@H](C(=O)N[C@@H](CCC(=O)O)C(=O)N[C@@H](CO)C(=O)O)[C@@H](C)O)C(C)C)[C@@H](C)CC)C(C)C)[C@@H](C)CC [LL-37],,,,,,,,"Mode of action on E. faecalis growth (bacteriostatic or bactericidal) (E. faecalis): potent bactericidal activity; MIC against Staphylococcus aureus (Staphylococcus aureus): 6.25 µg/mL; MIC against Streptococcus agalactiae (Streptococcus agalactiae): 12.5 µg/mL; MIC against Streptococcus pneumoniae (Streptococcus pneumoniae): 1.56 µg/mL; MIC against Staphylococcus epidermidis ([2]; ATCC 12228, BHIB, 18 hrs incubation at 37° C.): 25 µg/mL; MIC against Streptococcus salivarius (Streptococcus salivarius): 50 µg/mL; MIC against Streptococcus mitis (Streptococcus mitis): 6.25 µg/mL; MIC against Streptococcus pyogenes (Streptococcus pyogenes; ATCC 19615, BHIB/LHB, 18 hrs incubation at 37° C.): 6.25 µg/mL; MIC against Enterococcus faecalis (Enterococcus faecalis; ATCC 29212, BHIB, 18 hrs incubation at 37° C.): 6.25 µg/mL; MIC against Pseudomonas aeruginosa (Pseudomonas aeruginosa; ATCC 27853, BHIB, 18 hrs incubation at 37° C.): 6.25 µg/mL; MIC against Escherichia coli (Escherichia coli): 1.56 µg/mL; MIC against Candida albicans (Candida albicans; ATCC 10231, RPMI-1640, 18 hrs incubation at 37° C.): 6.25 µg/mL; MIC against Listeria monocytogenes (Listeria monocytogenes; ATCC 19112, BHIB, 18 hrs incubation at 37° C.): 25 µg/mL"
